The text below walks through data of patent US12643903B2, “Bifunctional compounds for degradation of EGFR and related methods of use” (BeiGene, Ltd., priority 2020, dated 2026).

What all share (assay type): cell-based
What all share (conditions): 16 h treatment, EGFR degradation by HTRF
A general note: Time-resolved FRET reads energy transfer from a long-lived donor to a nearby acceptor.

The target of test [1] is T1, EGFR (Homo sapiens, UniProt P00533, L858R/T790M).
T1 construct: endogenous in cells; host or cells: H1975
T1 sequence (P00533 25-1210 T790M/L858R): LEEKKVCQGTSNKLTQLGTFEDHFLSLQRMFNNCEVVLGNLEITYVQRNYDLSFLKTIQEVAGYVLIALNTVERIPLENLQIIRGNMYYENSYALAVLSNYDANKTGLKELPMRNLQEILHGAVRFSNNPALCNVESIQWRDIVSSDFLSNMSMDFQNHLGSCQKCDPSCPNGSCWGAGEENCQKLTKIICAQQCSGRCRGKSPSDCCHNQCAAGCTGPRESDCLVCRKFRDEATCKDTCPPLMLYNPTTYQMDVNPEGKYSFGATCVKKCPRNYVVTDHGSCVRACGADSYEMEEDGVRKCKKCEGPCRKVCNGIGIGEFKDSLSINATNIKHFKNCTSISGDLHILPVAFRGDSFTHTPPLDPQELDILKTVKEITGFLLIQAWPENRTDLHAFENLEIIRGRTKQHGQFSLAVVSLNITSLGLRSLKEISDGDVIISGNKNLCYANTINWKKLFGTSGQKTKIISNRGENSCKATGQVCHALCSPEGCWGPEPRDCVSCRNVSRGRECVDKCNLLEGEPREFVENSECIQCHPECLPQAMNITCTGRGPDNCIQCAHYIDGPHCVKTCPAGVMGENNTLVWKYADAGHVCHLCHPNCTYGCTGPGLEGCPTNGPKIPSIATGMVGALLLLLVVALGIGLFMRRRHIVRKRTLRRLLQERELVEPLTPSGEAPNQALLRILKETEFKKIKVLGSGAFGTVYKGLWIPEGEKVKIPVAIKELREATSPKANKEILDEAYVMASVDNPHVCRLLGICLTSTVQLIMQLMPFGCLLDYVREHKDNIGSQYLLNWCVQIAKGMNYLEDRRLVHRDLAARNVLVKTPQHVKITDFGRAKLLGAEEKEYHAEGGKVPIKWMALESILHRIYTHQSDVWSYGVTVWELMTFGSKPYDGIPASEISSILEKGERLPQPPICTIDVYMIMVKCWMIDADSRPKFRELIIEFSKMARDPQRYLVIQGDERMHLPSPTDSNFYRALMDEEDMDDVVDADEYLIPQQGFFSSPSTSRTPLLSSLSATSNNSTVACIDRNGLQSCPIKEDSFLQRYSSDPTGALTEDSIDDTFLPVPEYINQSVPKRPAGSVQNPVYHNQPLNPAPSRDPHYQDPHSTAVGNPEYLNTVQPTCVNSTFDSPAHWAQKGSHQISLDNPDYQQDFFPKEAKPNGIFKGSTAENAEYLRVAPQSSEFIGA
Kind of test: Cell Degradation 1: EGFR degradation in H1975 cells, HTRF assay. In short, it runs like this: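 H1975 cells treated with compound for 16 h, lysed 1 h at room temperature. EGFR measured by HTRF after overnight antibody incubation (665/620 nm). DC50 from four-parameter logistic fit of percent inhibition against concentration.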

The target in test [2] is T2, EGFR (Homo sapiens, UniProt P00533, DEL746-750).
T2 construct: endogenous in cells; host or cells: HCC827
T2 sequence (P00533 with tags, fused parts or gaps DEL746-750): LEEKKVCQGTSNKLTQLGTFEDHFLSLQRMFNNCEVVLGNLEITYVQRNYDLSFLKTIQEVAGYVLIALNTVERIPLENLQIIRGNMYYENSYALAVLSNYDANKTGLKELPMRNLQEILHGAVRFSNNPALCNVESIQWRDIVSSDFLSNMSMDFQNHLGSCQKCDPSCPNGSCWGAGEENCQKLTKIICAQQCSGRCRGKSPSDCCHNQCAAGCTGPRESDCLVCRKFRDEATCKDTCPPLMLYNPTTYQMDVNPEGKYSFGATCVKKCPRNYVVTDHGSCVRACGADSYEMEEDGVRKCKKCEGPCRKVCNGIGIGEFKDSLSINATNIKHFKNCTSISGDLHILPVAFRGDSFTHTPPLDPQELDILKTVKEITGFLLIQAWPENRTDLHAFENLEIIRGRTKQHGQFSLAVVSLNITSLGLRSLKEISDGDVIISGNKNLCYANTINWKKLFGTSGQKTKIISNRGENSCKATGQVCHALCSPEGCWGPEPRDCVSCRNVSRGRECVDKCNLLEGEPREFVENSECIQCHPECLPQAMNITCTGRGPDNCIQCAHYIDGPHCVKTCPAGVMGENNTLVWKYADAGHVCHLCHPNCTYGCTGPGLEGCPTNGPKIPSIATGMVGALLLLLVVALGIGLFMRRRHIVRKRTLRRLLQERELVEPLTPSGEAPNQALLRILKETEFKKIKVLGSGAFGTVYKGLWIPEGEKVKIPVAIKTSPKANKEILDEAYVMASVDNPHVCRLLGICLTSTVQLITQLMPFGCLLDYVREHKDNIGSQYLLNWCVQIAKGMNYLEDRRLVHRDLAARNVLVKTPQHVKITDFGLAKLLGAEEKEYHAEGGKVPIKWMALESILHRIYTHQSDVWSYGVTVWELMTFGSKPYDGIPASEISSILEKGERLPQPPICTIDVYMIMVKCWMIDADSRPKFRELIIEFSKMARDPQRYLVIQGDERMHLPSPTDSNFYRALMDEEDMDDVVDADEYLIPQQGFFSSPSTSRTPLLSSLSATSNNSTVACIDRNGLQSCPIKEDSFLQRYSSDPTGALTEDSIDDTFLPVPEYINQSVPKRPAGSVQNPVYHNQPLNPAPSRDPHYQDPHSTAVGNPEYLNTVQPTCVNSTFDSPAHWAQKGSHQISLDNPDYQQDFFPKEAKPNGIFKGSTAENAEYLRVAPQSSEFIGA
T2 sequence (Q96SW2 whole entry partner): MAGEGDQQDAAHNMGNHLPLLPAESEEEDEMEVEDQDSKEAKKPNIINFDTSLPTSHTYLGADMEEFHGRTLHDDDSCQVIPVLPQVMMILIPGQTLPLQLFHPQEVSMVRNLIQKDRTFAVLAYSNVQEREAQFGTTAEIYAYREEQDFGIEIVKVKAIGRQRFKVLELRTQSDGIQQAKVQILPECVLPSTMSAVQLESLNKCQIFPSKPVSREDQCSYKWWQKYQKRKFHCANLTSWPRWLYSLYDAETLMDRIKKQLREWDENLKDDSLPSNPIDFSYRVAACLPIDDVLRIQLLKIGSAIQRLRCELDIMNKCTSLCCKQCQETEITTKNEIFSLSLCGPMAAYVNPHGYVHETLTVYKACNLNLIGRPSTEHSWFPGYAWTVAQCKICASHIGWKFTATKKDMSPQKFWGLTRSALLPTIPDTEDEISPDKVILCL
Kind of test: Cell Degradation 2: EGFR degradation in HCC827 cells, HTRF assay. In short, it runs like this: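 Compound-treated HCC827 cells were lysed after 16 h and EGFR measured by HTRF (337 nm excitation, 665/620 nm emission) after overnight antibody incubation at room temperature. DC50 came from a four-parameter fit of percent inhibition against compound concentration.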

The test system of test [3] is EGFR DTC. Kind of test: Cell Degradation 3: EGFR degradation in BaF3 cells (DTC), HTRF assay. How it is done: (§1) Cell Degradation 3 Cell Treatment
(§2) BaF3 cells are treated with compounds diluted in 0.2% DMSO, dilution is done according to the following protocol: (1) make 500× stock solution in DMSO from 5 mM by 4-fold dilution, total 8 doses were included; (2) make 2× solution in cell culture medium by transferring 0.5 μl 500× stock solution into 125 μl medium; (3) 30 μl of 2× solution is added to cells and incubate for 16 h.
(§3) After 16 h treatment, add 20 μl 4×lysis buffer to each well; seal the plate and incubate 1 hour at room temperature on a plate shaker; Once the cells are lysed, 16 μL of cell lysate are transferred to a PE 384-well HTRF detection plate (for triple mutant cells, the lysate were diluted by the qual volume 1×lysis buffer before transfer); 4 μL of pre-mixed HTRF antibodies are added to each well; Cover the plate with a plate sealer, spin 1000 rpm for 1 min, Incubate overnight at room temperature; Read on BMG PheraStar with HTRF protocol (337 nm-665 nm-620 nm).
(§4) The IC50 (DC50) value of a compound can be obtained by fitting the following equation Y=Bottom+(TOP−Bottom)/(1+((IC50/X)^hillslope))
(§5) Wherein, X and Y are known values, and IC50, Hillslope, Top and Bottom are the parameters obtained by fitting with software. Y is the inhibition percentage (calculated from the equation), X is the concentration of the compound; IC50 is the concentration of the compound when the 50% inhibition is reached. The smaller the IC50 value is, the stronger the inhibitory ability of the compound is. Vice versa, the higher the IC50 value is, the weaker the ability the inhibitory ability of the compound is; Hillslope represents the slope of the fitted curve, generally around 1*; Bottom represents the minimum value of the curve obtained by data fitting, which is generally 0%±20%; Top represents the maximum value of the curve obtained by data fitting, which is generally 100%±20%. The experimental data were fitted by calculating and analyzing with Dotmatics data analysis software.

Test [4] addresses T3, EGFR LTC (Homo sapiens, UniProt P00533, C797S/L858R/T790M).
T3 construct: expressed in transfected cells; host or cells: BaF3
As to the kind of experiment: Cell Degradation 3: EGFR degradation in BaF3 cells (LTC), HTRF assay. The method, then: as §1, §2, §3, §4, §5

By DC50 is commonly meant the concentration giving 50% degradation.

T3 sequence (P00533 25-1210 T790M/C797S/L858R): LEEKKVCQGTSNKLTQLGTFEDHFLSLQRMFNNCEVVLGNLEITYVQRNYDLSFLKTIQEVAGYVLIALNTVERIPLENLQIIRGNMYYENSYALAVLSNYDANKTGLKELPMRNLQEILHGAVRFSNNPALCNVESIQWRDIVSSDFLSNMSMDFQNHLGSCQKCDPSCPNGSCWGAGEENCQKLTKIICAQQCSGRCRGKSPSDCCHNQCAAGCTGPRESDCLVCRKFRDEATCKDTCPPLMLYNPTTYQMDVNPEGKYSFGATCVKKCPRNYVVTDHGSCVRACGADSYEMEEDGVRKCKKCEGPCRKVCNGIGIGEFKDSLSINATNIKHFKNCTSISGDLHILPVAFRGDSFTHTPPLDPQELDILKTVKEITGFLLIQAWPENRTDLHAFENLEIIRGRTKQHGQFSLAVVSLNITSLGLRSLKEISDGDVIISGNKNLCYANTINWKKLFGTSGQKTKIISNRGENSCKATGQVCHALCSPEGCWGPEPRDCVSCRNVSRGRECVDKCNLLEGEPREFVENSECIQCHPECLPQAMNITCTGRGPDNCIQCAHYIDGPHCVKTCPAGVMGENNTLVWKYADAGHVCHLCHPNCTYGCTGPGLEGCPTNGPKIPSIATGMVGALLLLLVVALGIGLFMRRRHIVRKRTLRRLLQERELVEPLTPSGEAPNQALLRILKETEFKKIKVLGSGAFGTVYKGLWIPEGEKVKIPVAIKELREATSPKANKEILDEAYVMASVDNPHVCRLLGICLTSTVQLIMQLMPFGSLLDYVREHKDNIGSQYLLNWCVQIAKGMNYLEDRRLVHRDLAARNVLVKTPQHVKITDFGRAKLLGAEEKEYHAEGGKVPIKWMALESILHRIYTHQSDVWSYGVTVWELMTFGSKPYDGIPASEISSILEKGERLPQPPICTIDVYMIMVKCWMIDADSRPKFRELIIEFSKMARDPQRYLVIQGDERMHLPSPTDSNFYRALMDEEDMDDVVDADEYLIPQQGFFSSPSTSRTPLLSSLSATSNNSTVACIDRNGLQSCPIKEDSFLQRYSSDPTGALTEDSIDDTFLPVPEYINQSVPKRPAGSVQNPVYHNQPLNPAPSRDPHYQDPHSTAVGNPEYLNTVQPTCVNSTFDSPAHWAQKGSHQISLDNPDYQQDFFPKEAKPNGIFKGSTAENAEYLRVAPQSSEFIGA

Turning to `CS(=O)(=O)N1CCc2cccc(Nc3nc(Nc4ccc(N5CCC(N6CCN(CCC7CCN(c8ccc(C9CCC(=O)NC9=O)cc8)CC7)CC6)CC5)c5c4OCC5)ncc3Cl)c21` (stereo not shown) [Example 54, 3-(4-(4-(2-(4-(1-(7-((5-chloro-4-((1-(methylsulfonyl)indolin-7-yl)amino)pyrimidin-2-yl)amino)-2,3-dihydrobenzofuran-4-yl)piperidin-4-yl)piperazin-1-yl)ethyl)piperidin-1-yl)phenyl)piperidine-2,6-dione], the DC50 in test [1] amounted to 8.9 nM; in test [2] it was 8.9 nM; in test [3], 120 nM; in test [4] it was 443 nM.
Take `COc1cc(N2CCC(N3CCN(C(=O)[C@@H]4CCN(c5ccc6c(c5)C(=O)N(C5CCC(=O)NC5=O)C6=O)C4)CC3)CC2)ccc1Nc1ncc(Cl)c(Nc2cccc3c2N(S(C)(=O)=O)CC3)n1` (stereo partly drawn) [Example 88, 5-((R)-3-(4-(1-(4-((5-chloro-4-((1-(methylsulfonyl)indolin-7-yl)amino)pyrimidin-2-yl)amino)-3-methoxyphenyl)piperidin-4-yl)piperazine-1-carbonyl)pyrrolidin-1-yl)-2-(2,6-dioxopiperidin-3-yl)isoindoline-1,3-dione]: the DC50 in test [1] amounted to 4.2 nM; in test [2], 2.7 nM; in test [3] it was 15.6 nM; in test [4], 43.3 nM.
For `COc1cc(N2CCC(N3CCN(C(=O)C4CN(c5ccc6c(c5)CN(C5CCC(=O)NC5=O)C6=O)C4)CC3)CC2)c(C)cc1Nc1ncc(Br)c(Nc2cccc3c2N(S(C)(=O)=O)CC3)n1` (stereo not shown) [Example 172, 3-(5-(3-(4-(1-(4-((5-bromo-4-((1-(methylsulfonyl)indolin-7-yl)amino)pyrimidin-2-yl)amino)-5-methoxy-2-methylphenyl)piperidin-4-yl)piperazine-1-carbonyl)azetidin-1-yl)-1-oxoisoindolin-2-yl)piperidine-2,6-dione], the values for the DC50 in test [2], in test [3] and in test [4] were 2 nM, 4 nM and 9 nM, respectively.
In the case of `COc1cc(N2CCC(N3CCN(CC4CCN(c5ccc6c(c5)CN(C5CCC(=O)NC5=O)C6=O)CC4)CC3)CC2)c(C)cc1Nc1ncc(Br)c(Nc2cccc3c2N(S(C)(=O)=O)CC3)n1` (stereo not shown) [Example 175, 3-(5-(4-((4-(1-(4-((5-bromo-4-((1-(methylsulfonyl)indolin-7-yl)amino)pyrimidin-2-yl)amino)-5-methoxy-2-methylphenyl)piperidin-4-yl)piperazin-1-yl)methyl)piperidin-1-yl)-1-oxoisoindolin-2-yl)piperidine-2,6-dione], the results for the half-maximal degradation concentration (DC50) in test [3] and in test [4] were 17 nM and 31 nM, respectively.
As for `COc1cc(N2CCC(N3CCN(CC4CCN(c5cc(F)c(C6CCC(=O)NC6=O)c(F)c5)CC4)CC3)CC2)c(C)cc1Nc1ncc(Br)c(Nc2cccc3c2N(S(C)(=O)=O)CC3)n1` (stereo not shown) [Example 181, 3-(4-(4-((4-(1-(4-((5-bromo-4-((1-(methylsulfonyl)indolin-7-yl)amino)pyrimidin-2-yl)amino)-5-methoxy-2-methylphenyl)piperidin-4-yl)piperazin-1-yl)methyl)piperidin-1-yl)-2,6-difluorophenyl)piperidine-2,6-dione], the half-maximal degradation concentration (DC50) was determined as 43 nM in test [3] and 64 nM in test [4].
For the molecule `COc1cc(N2CCC(N3CCN(C(=O)[C@H]4C[C@H](N(C)c5ccc6c(c5)C(=O)N(C5CCC(=O)NC5=O)C6=O)C4)CC3)CC2)c(C)cc1Nc1ncc(Br)c(Nc2cccc3c2N(S(C)(=O)=O)CC3)n1` (stereo partly shown) [Example 158, 5-(((1r,3r)-3-(4-(1-(4-((5-bromo-4-((1-(methylsulfonyl)indolin-7-yl)amino)pyrimidin-2-yl)amino)-5-methoxy-2-methylphenyl)piperidin-4-yl)piperazine-1-carbonyl)cyclobutyl)(methyl)amino)-2-(2,6-dioxopiperidin-3-yl)isoindoline-1,3-dione], the DC50 worked out at 19 nM in test [3] and 41 nM in test [4].
Taken in the same sequence, the figures for `COc1cc(N2CCC(N3CCN(C[C@H]4CCN(c5ccc6c(c5)C(=O)N(C5CCC(=O)NC5=O)C6=O)C4)CC3)CC2)c(C)cc1Nc1ncc(Br)c(Nc2cccc3c2N(S(C)(=O)=O)CC3)n1` (stereo partly drawn) [Example 156, 5-((R)-3-((4-(1-(4-((5-bromo-4-((1-(methylsulfonyl)indolin-7-yl)amino)pyrimidin-2-yl)amino)-5-methoxy-2-methylphenyl)piperidin-4-yl)piperazin-1-yl)methyl)pyrrolidin-1-yl)-2-(2,6-dioxopiperidin-3-yl)isoindoline-1,3-dione] were 21 nM and 33 nM.
As to `CCc1cc(Nc2ncc(Br)c(Nc3cccc4c3N(S(C)(=O)=O)CC4)n2)c(OC)cc1N1CCC(N2CCN(CCC3CCN(c4cc(F)c(C5CCC(=O)NC5=O)c(F)c4)CC3)CC2)CC1` (stereo not shown) [Example 160, 3-(4-(4-(2-(4-(1-(4-((5-bromo-4-((1-(methylsulfonyl)indolin-7-yl)amino)pyrimidin-2-yl)amino)-2-ethyl-5-methoxyphenyl)piperidin-4-yl)piperazin-1-yl)ethyl)piperidin-1-yl)-2,6-difluorophenyl)piperidine-2,6-dione], the DC50 in test [3] worked out at 150 nM; in test [4], 162 nM.
In the same order, the values of `COc1cc(N2CCC(N3CCN(CCc4cc(Cl)c(C5CCC(=O)NC5=O)cc4F)CC3)CC2)c(C)cc1Nc1ncc(Br)c(Nc2cccc3c2N(S(C)(=O)=O)CC3)n1` (stereo not shown) [Example 174, 3-(4-(2-(4-(1-(4-((5-bromo-4-((1-(methylsulfonyl)indolin-7-yl)amino)pyrimidin-2-yl)amino)-5-methoxy-2-methylphenyl)piperidin-4-yl)piperazin-1-yl)ethyl)-2-chloro-5-fluorophenyl)piperidine-2,6-dione] are 30 nM and 69 nM.
As to `COc1cc(N2CCC(N3CCN(C(=O)[C@H]4C[C@H](N(C)c5ccc(C6CCC(=O)NC6=O)cc5)C4)CC3)CC2)c(C)cc1Nc1ncc(Br)c(Nc2cccc3c2N(S(C)(=O)=O)CC3)n1` (stereo partly shown) [Example 170, 3-(4-(((1r,3r)-3-(4-(1-(4-((5-bromo-4-((1-(methylsulfonyl)indolin-7-yl)amino)pyrimidin-2-yl)amino)-5-methoxy-2-methylphenyl)piperidin-4-yl)piperazine-1-carbonyl)cyclobutyl)(methyl)amino)phenyl)piperidine-2,6-dione], the results for the 50% degradation concentration (DC50) in test [3] and in test [4] were 8 nM and 23 nM, respectively.
Taken in the same sequence, the figures for `COc1cc(N2CCC(N3CCN(CCOc4cccc5c4C(=O)N(C4CCC(=O)NC4=O)C5=O)CC3)CC2)c(C)cc1Nc1ncc(Br)c(Nc2cccc3c2N(S(C)(=O)=O)CC3)n1` (stereo not shown) [Example 166, 4-(2-(4-(1-(4-((5-bromo-4-((1-(methylsulfonyl)indolin-7-yl)amino)pyrimidin-2-yl)amino)-5-methoxy-2-methylphenyl)piperidin-4-yl)piperazin-1-yl)ethoxy)-2-(2,6-dioxopiperidin-3-yl)isoindoline-1,3-dione] were 175 nM and 247 nM.
Regarding `COc1cc(N2CCC(N3CCN(CCc4ccc(NC5CCC(=O)NC5=O)cc4)CC3)CC2)c(C)cc1Nc1ncc(Br)c(Nc2cccc3c2N(S(C)(=O)=O)CC3)n1` (stereo not shown) [Example 152, 3-((4-(2-(4-(1-(4-((5-bromo-4-((1-(methylsulfonyl)indolin-7-yl)amino)pyrimidin-2-yl)amino)-5-methoxy-2-methylphenyl)piperidin-4-yl)piperazin-1-yl)ethyl)phenyl)amino)piperidine-2,6-dione], the DC50 in test [3] was 66 nM; in test [4], 27 nM.
In the same order, the values of `COc1cc(N2CCC(N3CCN(C4CC(c5ccc(NC6CCC(=O)NC6=O)cc5)C4)CC3)CC2)c(C)cc1Nc1ncc(Br)c(Nc2cccc3c2N(S(C)(=O)=O)CC3)n1` (stereo not shown) [Example 182, 3-((4-(3-(4-(1-(4-((5-bromo-4-((1-(methylsulfonyl)indolin-7-yl)amino)pyrimidin-2-yl)amino)-5-methoxy-2-methylphenyl)piperidin-4-yl)piperazin-1-yl)cyclobutyl)phenyl)amino)piperidine-2,6-dione] are 77 nM and 70 nM.
